Results from PMC7774954, “Interactomic affinity profiling by holdup assay: Acetylation and distal residues impact the PDZome-binding specificity of PTEN phosphatase” (PLoS ONE, 2020).
*1 amine or outer side, *2 acyl side, *3 side chain or, on linkers, in order; H or OH if unused. Where a SMILES comes first, the peptide text is derived from it. The star is where a group is joined. X1 = O=C(CCCC[C@@H]1SC[C@@H]2NC(=O)N[C@@H]21)NCCCOCCOCCOCCCN*; Suc = O=C(CCC(=O)[*:2])[*:1]

Columns and labels:
[1] = tested on: INADL-3; test: Holdup assay, INADL-3; assay type: binding, human
[2] = target: MPDZ-11 (Homo sapiens, UniProt O75970); test: Holdup assay, MPDZ-11; assay type: binding
Chain of MPDZ-11 (O75970 whole entry): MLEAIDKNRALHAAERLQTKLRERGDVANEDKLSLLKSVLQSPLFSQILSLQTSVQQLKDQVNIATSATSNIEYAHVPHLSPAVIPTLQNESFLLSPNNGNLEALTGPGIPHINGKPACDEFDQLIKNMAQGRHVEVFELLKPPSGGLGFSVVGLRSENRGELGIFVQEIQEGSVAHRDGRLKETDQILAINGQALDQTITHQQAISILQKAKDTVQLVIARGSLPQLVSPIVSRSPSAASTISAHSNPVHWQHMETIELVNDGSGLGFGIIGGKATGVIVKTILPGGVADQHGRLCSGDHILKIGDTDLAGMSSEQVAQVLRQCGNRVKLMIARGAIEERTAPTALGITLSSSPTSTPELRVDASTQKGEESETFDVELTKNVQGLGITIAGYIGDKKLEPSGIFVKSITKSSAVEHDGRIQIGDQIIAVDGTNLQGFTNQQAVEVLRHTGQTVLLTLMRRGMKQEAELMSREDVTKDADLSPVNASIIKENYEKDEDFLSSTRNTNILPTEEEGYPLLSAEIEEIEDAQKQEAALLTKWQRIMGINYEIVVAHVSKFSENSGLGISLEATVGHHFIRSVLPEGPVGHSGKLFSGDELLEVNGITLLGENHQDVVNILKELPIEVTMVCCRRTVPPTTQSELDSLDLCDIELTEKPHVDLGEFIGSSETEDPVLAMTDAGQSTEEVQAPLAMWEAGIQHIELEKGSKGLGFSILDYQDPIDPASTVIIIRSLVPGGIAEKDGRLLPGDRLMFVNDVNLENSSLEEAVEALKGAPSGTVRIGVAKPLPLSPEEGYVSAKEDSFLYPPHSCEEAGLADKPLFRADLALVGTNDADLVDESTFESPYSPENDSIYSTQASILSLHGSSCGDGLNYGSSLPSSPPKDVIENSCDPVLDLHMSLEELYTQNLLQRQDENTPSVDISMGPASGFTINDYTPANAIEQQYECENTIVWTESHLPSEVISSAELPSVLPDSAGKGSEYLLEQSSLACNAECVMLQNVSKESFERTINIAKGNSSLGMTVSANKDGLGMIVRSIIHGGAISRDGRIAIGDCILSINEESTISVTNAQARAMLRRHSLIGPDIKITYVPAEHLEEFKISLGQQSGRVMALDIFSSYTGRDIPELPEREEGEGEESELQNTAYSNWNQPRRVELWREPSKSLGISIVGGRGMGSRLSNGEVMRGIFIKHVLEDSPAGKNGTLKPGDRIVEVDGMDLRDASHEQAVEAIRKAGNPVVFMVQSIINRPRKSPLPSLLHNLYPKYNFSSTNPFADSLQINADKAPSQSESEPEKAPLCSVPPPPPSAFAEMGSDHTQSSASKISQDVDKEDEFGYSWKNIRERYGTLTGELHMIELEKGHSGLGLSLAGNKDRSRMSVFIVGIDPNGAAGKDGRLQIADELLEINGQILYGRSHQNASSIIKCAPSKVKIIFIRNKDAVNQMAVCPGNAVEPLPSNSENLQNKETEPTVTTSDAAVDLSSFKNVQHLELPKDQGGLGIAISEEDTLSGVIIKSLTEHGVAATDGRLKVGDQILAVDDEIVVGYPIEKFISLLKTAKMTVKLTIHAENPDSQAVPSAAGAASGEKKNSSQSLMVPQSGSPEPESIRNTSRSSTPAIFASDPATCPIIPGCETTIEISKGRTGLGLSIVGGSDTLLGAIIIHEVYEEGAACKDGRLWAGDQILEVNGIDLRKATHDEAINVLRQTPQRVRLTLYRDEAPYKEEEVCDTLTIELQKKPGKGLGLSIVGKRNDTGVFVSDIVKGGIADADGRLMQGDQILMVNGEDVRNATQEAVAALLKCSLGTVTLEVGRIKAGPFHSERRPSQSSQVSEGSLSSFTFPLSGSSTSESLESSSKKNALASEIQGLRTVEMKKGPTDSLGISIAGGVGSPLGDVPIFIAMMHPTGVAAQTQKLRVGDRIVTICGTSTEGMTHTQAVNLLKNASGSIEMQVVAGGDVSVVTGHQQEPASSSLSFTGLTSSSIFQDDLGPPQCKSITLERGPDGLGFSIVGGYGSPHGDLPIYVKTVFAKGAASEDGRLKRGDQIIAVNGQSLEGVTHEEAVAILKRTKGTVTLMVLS

[3] = target: T1, ARHGEF11-1 (Homo sapiens, UniProt O15085); test: Holdup assay, ARHGEF11-1; assay type: binding
T1 sequence (O15085 47-126): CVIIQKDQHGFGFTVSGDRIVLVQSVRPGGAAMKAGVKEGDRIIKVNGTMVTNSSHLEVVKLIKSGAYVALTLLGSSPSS

[4] = tested on: human PDZome; test: Promiscuity / specificity index from PDZome affinity profile (combined holdup and FP); assay type: binding; settings: for Nb PDZ (BI): Val for BI=0.2; for Max Log(Kd): maximum over PDZome; for 1/2PDZ: number of PDZ, 1/2PDZ Min and Max; for number of PDZ domains above the half-maximal binding affinity: relative to number of tested and validated PDZ domains
From the text: Using the mean concentration obtained above for each of the different PTEN peptides, the experimental BI values recorded by holdup for all tested domain/peptide pairs were subsequently transformed into equilibrium dissociation constants. […] Thereafter, affinity data measured by FP assay were also included in the […] for the PDZ domains (MAST1-1, MAST2-1, SNX27-1, MAGI1-2 and GRID2IP-2) for which holdup data were missing according to the low quality score in the filtering step. These interaction data detected only by competitive FP and not by holdup represented 1 to 2 additional PDZ binders per PTEN construct. […] This transformation into affinity values makes then possible to compare binding affinity profiles obtained for different peptides and potentially different batches.
The above described holdup-FP strategy delivers binding affinity constants, a universal chemical property. […] We then looked for a numerical parameter that would express, in a quantitative way, this specificity or promiscuity information. For this purpose, we calculated for each profile the difference between the maximal and the minimal significant affinity values detected by the assay, ΔGmax − ΔGmin. Next, we introduced a threshold affinity, called "half-maximal binding affinity" defined as follows: ΔGhalf = ΔGmin + (ΔGmax − ΔGmin)/2. […] Alternatively, the specificity index IS could be defined as 1 –IP. Therefore, the lower the promiscuity index, the higher the specificity index, the higher the specificity of the PBM for a limited number of selected domains across the PDZome.
We probed the specificity index on the PDZome-binding profiles of the four PTEN peptides. […] This would indicate, in qualitative terms, that the PTEN_13 peptide selects PDZ domains in a more specific -less promiscuous- way than that of the three of other peptides. […] One should note that it was not possible to determine index uncertainty by error propagation starting from holdup data, since BI values have been recorded in singlicate. However, the dispersion of log(KD) values around the perfect theoretical correlation line in the correlation plot (Fig 5B) is representative of global IS uncertainty, which was therefore estimated by averaging the distances between the experimental dots and the theoretical diagonal. Details about uncertainties and Fisher’s test calculations are provided in Supp. Materials and S1 File.
Uncertainty on IS was estimated according to several steps described below:
- Since it’s not possible strictly talking to propagate uncertainty for data recorded in singlicate, we considered that log(KD) uncertainty is contained in the correlation plot [log(KD,HU) vs. log(KD,FP)] when comparing the experimental data with the perfect theoretical correlation (the dotted diagonal line).
- Originally, we estimated the 1/2 PDZ index by counting the number of PDZ with a log(KD) value above the threshold calculated with the formulae developed in the manuscript. Then we did the same type of counting for [threshold value + log(KD) uncertainty] and for [threshold value - log(KD) uncertainty].
- From the difference in the two counts is estimated the index uncertainty.
Due to the low number of PDZ occurrences, a Fisher's exact test was preferred to estimate the p-value. Calculations were performed online with http://astatsa.com using default parameters.

[5] = tested on: DLG1-3; test: Holdup assay, DLG1-3; assay type: binding, human
[6] = tested on: GRIP1-1; test: Holdup assay, GRIP1-1; assay type: binding, human
[7] = target: GRASP-1 (Homo sapiens, UniProt Q7Z6J2); test: Holdup assay, GRASP-1; assay type: binding; settings: for BI: GRASP-1
Chain of GRASP-1 (Q7Z6J2 100-189): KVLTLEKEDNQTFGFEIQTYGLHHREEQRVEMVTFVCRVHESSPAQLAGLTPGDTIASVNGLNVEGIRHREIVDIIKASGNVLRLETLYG

[8] = tested on: APBA3-2; test: Holdup assay, APBA3-2; assay type: binding, human
[9] = tested on: MAGI1-6; test: Holdup assay, MAGI1-6; assay type: binding, human
[10] = tested on: FRMPD2-3; test: Holdup assay, FRMPD2-3; assay type: binding, human
[11] = target: T2, SCRIB-3 (Homo sapiens, UniProt Q14160); test: Holdup assay, SCRIB-3; assay type: binding; settings: for BI: PDZ domain SCRIB-3
T2 construct: Representative holdup data recorded for three PDZ domains (MAST2-1, HTRA1-1, SCRIB-3); made in house; host or cells: E. coli
T2 sequence (Q14160 1004-1093 limits assumed): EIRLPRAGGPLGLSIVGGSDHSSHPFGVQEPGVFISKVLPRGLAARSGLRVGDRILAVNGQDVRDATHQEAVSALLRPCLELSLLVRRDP
Protocol: The holdup assay was performed on a Tecan freedom Evo200 robot with 384-well plates in singlicate for the three 11-mer PTEN variants and the 13-mer PTEN peptide as described in [31, 32]. Briefly, prior to interaction assay, 2.5 μL of streptavidin resin was saturated in each well with 20 μL of biotinylated PBM peptides (42 μM) and then washed twice with an excess of free biotin, while the reference resin was incubated only with biotin. Right before the holdup experiment, the PDZ library was spiked with an internal standard of lysozyme. Then, the biotin- or PBM-saturated resin was incubated, each in a distinct well of a 384-well plate, with complete cell lysates diluted so that the concentration of the tag-PDZ present in the crude extract is adjusted at 4 μM. After a sufficient time to reach complex equilibrium (15 min.), a fast and mild filtration step is performed and the tag-PDZ concentrations were measured by capillary electrophoresis instrument (LabChip GXII, PerkinElmer, Massachusets, USA). Standard markers were used to convert migration time into molecular weight on the LabChip software and inappropriate molecular weight markers were corrected or excluded.
For filtered data, the BI was extracted with the following equation (Eq 1) that estimates the depleted fraction after superimposition of the sample and reference electropherograms: BI=Iref−Ilig/Iref (1) where Iref and Ilig are the intensities of the tag-PDZ peaks measured, for each PDZ domain/PBM peptide interaction pair, in the biotin reference and the PBM electropherograms, respectively.

[12] = tested on: MAGI3-1; test: Holdup assay, MAGI3-1; assay type: binding, human
[13] = target: T3, LNX1-2 (Homo sapiens, UniProt Q8TBB1); test: Holdup assay, LNX1-2; assay type: binding
T3 sequence (Q8TBB1 385-467): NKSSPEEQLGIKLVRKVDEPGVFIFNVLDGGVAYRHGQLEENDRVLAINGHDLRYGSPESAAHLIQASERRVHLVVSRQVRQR

| SMILES | BI [1] | LogKD [1] | BI [2] | LogKD [2] | BI [3] | Nb PDZ (BI) [4] | 1/2PDZ [4] | number of PDZ domains above the half-maximal binding affinity [4] | BI [5] | LogKD [5] | BI [6] | Kd [7] [µM] | BI [7] | BI [8] | LogKD [8] | BI [9] | LogKD [9] | BI [10] | LogKD [10] | BI [11] | other results |
| --- | --- | --- | --- | --- | --- | --- | --- | --- | --- | --- | --- | --- | --- | --- | --- | --- | --- | --- | --- | --- | --- |
| CC[C@H](C)[C@H](NC(=O)[C@H](CCC(N)=O)NC(=O)[C@@H](NC(=O)[C@H](Cc1c[nH]cn1)NC(=O)[C@H](CCC(N)=O)NC(=O)[C@H](CC(=O)O)NC(=O)[C@H](CCC(=O)O)NC(=O)[C@H](CC(=O)O)NC(=O)CCC(=O)NCCCOCCOCCOCCCNC(=O)CCCC[C@@H]1SC[C@@H]2NC(=O)N[C@@H]21)[C@@H](C)O)C(=O)N[C@H](C(=O)N[C@@H](CCCCN)C(=O)N[C@H](C(=O)O)C(C)C)[C@@H](C)O [PTEN_11] | -0.001 | 3.519 | 0.021 | 3.519 | 0.026 | 19 | 9 | 9 | 0.044 | 3.519 | -0.021 | 33.1 | 0.492 | 0.086 | 3.519 | -0.04 | 3.519 | -0.046 | 3.519 | 0.058 | LogKD [3]: 3.519; Max Log(Kd) [4]: 4.90; LogKD [6]: 3.519; BI (binding intensity) ([11]; SCRIB-3, holdup, singlicate): 0.02; BI [12]: -0.011; LogKD [12]: 3.519; BI [13]: 0.105 |
| CC[C@H](C)[C@H](NC(=O)[C@H](CCC(N)=O)NC(=O)[C@@H](NC(=O)[C@H](Cc1c[nH]cn1)NC(=O)[C@H](CCC(N)=O)NC(=O)[C@H](CC(=O)O)NC(=O)[C@H](CCC(=O)O)NC(=O)[C@H](CC(=O)O)NC(=O)[C@H](Cc1ccccc1)NC(=O)[C@@H]1CCCN1C(=O)CCC(=O)NCCCOCCOCCOCCCNC(=O)CCCC[C@@H]1SC[C@@H]2NC(=O)N[C@@H]21)[C@@H](C)O)C(=O)N[C@H](C(=O)N[C@@H](CCCCN)C(=O)N[C@H](C(=O)O)C(C)C)[C@@H](C)O [PTEN_13] ({X1-Suc}-PFDEDQHTQITKV-OH) | 0.031 |  | 0.012 | 3.826 | 0.114 | 25 | 4 | 4 | -0.033 |  | -0.079 | 12.4 | 0.544 | 0.046 |  | 0.072 |  | -0.027 |  | -0.068 | specificity (in words) ([4]; compared with the three 11-mer peptides): slight increased specificity; Max Log(Kd) [4]: 5.89; BI [12]: -0.006; BI [13]: 0.44; Kd [13]: 19.4 µM |
| CC[C@H](C)[C@H](NC(=O)[C@H](CCC(N)=O)NC(=O)[C@@H](NC(=O)[C@H](Cc1c[nH]cn1)NC(=O)[C@H](CCC(N)=O)NC(=O)[C@H](CC(=O)O)NC(=O)[C@H](CCC(=O)O)NC(=O)[C@H](CC(=O)O)NC(=O)CCC(=O)NCCCOCCOCCOCCCNC(=O)CCCC[C@@H]1SC[C@@H]2NC(=O)N[C@@H]21)[C@@H](C)O)C(=O)N[C@H](C(=O)N[C@@H](CCCNC(=N)N)C(=O)N[C@H](C(=O)O)C(C)C)[C@@H](C)O [PTEN_KR] ({X1-Suc}-DEDQHTQITRV-OH) | -0.042 | 3.655 | 0.02 | 3.655 | 0.18 | 38 | 9 | 9 | 0.077 | 3.655 | -0.163 | 16.8 | 0.575 | 0.086 | 3.655 | 0.051 | 3.655 | -0.067 | 3.655 | 0.022 | LogKD [6]: 3.655; BI [12]: -0.004; LogKD [12]: 3.655 |
| CC[C@H](C)[C@H](NC(=O)[C@H](CCC(N)=O)NC(=O)[C@@H](NC(=O)[C@H](Cc1c[nH]cn1)NC(=O)[C@H](CCC(N)=O)NC(=O)[C@H](CC(=O)O)NC(=O)[C@H](CCC(=O)O)NC(=O)[C@H](CC(=O)O)NC(=O)CCC(=O)NCCCOCCOCCOCCCNC(=O)CCCC[C@@H]1SC[C@@H]2NC(=O)N[C@@H]21)[C@@H](C)O)C(=O)N[C@H](C(=O)N[C@@H](CCCCNC(C)=O)C(=O)N[C@H](C(=O)O)C(C)C)[C@@H](C)O [PTEN_Ac] | -0.021 | 3.605 | 0.145 |  | 0.428 | 43 | 12 | 12 | -0.088 | 3.605 |  | 8.02 | 0.757 | 0.024 | 3.605 | 0.096 | 3.605 | -0.064 | 3.605 | -0.053 | Kd [3]: 35.1 µM; BI [13]: 0.164 |
